Like-named read-outs stand apart in the source and are kept apart here. Positions of bridges follow the written chain, without caps; N, C: chain ends. Residues, ends and D or L forms follow the SMILES beside them.
Key:
IgG4 = IgG4 (Homo sapiens, UniProt P01861); assay type: binding; set-up: all human subtypes derived from myeloma patients; purchased Calbiochem 400126; host or cells: myeloma patients; settings: Table 9; immobilized peptide, 5.0 mg/ml resin load
Procedure, shortened: (§1)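 Read-out is A280 of unbound IgG (1.4 mg/ml extinction coefficient), with percent bound derived against non-filtered or negative controls. Targets were incubated with immobilized peptides in PBST or TBST for 1-1.5 h at room temperature. Hydrolyzed Sepharose and immobilized Protein A serve as negative and positive controls.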

human IgG2 = biological target: T1, human IgG2 (Homo sapiens, UniProt P01859); assay type: binding; settings: Table 9; immobilized peptide, 5.0 mg/ml resin load
T1 construct: all human subtypes derived from myeloma patients; purchased Calbiochem 400122; host or cells: myeloma patients
Procedure, shortened: as §1

mouse IgG = assay type: binding; settings: Table 11; unfractionated IgG
Procedure, shortened: as §1

human IgG1 = biological target: T2, human IgG1 (Homo sapiens, UniProt P01857); assay type: binding; settings: Table 9; immobilized peptide, 5.0 mg/ml resin load
T2 construct: all human subtypes derived from myeloma patients; purchased Calbiochem 400120; host or cells: myeloma patients
Procedure, shortened: as §1

goat IgG = assay type: binding; settings: Table 11; unfractionated IgG
Procedure, shortened: as §1

human IgG = assay type: binding; settings: Table 11; unfractionated IgG
Procedure, shortened: as §1

bovine IgG = assay type: binding; settings: Table 11; unfractionated IgG
Procedure, shortened: as §1

human plasma IgG3 = biological target: T3, human plasma IgG3 (Homo sapiens, UniProt P01860); assay: Fluorescence anisotropy binding, Oregon Green labeled peptide
T3 construct: the individual human plasma IgG isoforms: IgG1, IgG2, IgG3, or IgG4; purchased Calbiochem; host or cells: human plasma

human plasma IgG4 = biological target: T4, human plasma IgG4 (Homo sapiens, UniProt P01861); assay: as above
T4 construct: the individual human plasma IgG isoforms: IgG1, IgG2, IgG3, or IgG4; purchased Calbiochem; host or cells: human plasma
Procedure, shortened: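 Oregon Green-labeled peptides binding to human plasma IgG isoforms measured by fluorescence anisotropy. Buffers with 0.01% Tween 20: 10 mM sodium citrate pH 4.0 with 500 mM NaCl; Tris-HCl pH 7.5 with 500 mM NaCl; 10 mM sodium bicarbonate pH 9.5 with or without 500 mM NaCl.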

human plasma IgG2 = biological target: T5, human plasma IgG2 (Homo sapiens, UniProt P01859); assay: as above
T5 construct: the individual human plasma IgG isoforms: IgG1, IgG2, IgG3, or IgG4; purchased Calbiochem; host or cells: human plasma

IgG3 = IgG3 (Homo sapiens, UniProt P01860); assay type: binding; set-up: all human subtypes derived from myeloma patients; purchased Calbiochem 400124; host or cells: myeloma patients; settings: Table 9; immobilized peptide, 5.0 mg/ml resin load
Procedure, shortened: as §1

[1] = 10 mM Sodium Bicarbonate, 500 mM Sodium Chloride, pH 9.5, read-out: KD (μM) IgG3 pH 9.5 + salt
[2] = 10 mM Sodium Bicarbonate, pH 9.5, read-out: KD (μM) IgG3 pH 9.5 − salt
[3] = 10 mM Sodium Citrate, 500 mM Sodium Chloride, pH 4.0, read-out: KD (μM) IgG3 pH 4.0 + salt
[4] = 10 mM Sodium Citrate, pH 4.0, read-out: KD (μM) IgG3 pH 4.0 − salt
[5] = 10 mM Tris-HCl, pH 7.5, read-out: KD (μM) IgG3 pH 7.5 − salt
[6] = TBS, 0.01% Tween 20, pH 7.5, read-out: KD (μM) IgG3 TBS
[7] = 10 nM Tris-HCl, 500 mM Sodium Chloride, pH 7.5, read-out: KD (μM) IgG4 pH 7.5 + salt
[8] = 10 mM Sodium Bicarbonate, 500 mM Sodium Chloride, pH 9.5, read-out: KD (μM) IgG4 pH 9.5 + salt
[9] = 10 mM Sodium Bicarbonate, pH 9.5, read-out: KD (μM) IgG4 pH 9.5 − salt
[10] = 10 mM Sodium Citrate, 500 mM Sodium Chloride, pH 4.0, read-out: KD (μM) IgG4 pH 4.0 + salt
[11] = 10 mM Sodium Citrate, pH 4.0, read-out: KD (μM) IgG4 pH 4.0 − salt
[12] = 10 mM Tris-HCl, pH 7.5, read-out: KD (μM) IgG4 pH 7.5 − salt
[13] = TBS, 0.01% Tween 20, pH 7.5, read-out: KD (μM) IgG4 TBS
[14] = 10 nM Tris-HCl, 500 mM Sodium Chloride, pH 7.5, read-out: KD (μM) IgG2 pH 7.5 + salt
[15] = 10 mM Sodium Bicarbonate, 500 mM Sodium Chloride, pH 9.5, read-out: KD (μM) IgG2 pH 9.5 + salt
[16] = 10 mM Sodium Bicarbonate, pH 9.5, read-out: KD (μM) IgG2 pH 9.5 − salt
[17] = 10 mM Sodium Citrate, 500 mM Sodium Chloride, pH 4.0, read-out: KD (μM) IgG2 pH 4.0 + salt
[18] = 10 mM Sodium Citrate, pH 4.0, read-out: KD (μM) IgG2 pH 4.0 − salt
[19] = 10 mM Tris-HCl, pH 7.5, read-out: KD (μM) IgG2 pH 7.5 − salt
[20] = TBS, 0.01% Tween 20, pH 7.5, read-out: KD (μM) IgG2 TBS

T4 sequence (P01861 1-327 isoform P01861-1): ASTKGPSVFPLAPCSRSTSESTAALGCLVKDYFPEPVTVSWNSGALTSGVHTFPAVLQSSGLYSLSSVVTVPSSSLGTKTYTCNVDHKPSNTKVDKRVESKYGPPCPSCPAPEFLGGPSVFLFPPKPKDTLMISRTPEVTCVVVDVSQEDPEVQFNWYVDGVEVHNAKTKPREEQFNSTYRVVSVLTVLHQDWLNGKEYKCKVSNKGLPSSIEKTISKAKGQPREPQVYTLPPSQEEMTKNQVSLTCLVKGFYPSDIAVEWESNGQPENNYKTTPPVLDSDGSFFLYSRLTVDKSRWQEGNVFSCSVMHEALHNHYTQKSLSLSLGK
T5 sequence (P01859 1-326 isoform P01859-1): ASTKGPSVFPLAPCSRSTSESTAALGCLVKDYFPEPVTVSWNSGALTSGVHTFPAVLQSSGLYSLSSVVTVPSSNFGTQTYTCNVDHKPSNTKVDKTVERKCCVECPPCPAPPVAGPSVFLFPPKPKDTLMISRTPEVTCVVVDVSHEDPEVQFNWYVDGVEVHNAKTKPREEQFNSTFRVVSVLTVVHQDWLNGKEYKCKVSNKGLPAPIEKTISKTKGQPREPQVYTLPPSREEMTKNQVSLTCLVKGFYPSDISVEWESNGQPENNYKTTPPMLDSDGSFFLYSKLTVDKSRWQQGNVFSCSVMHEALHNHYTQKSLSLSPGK
T3 sequence (P01860 1-377 isoform P01860-1): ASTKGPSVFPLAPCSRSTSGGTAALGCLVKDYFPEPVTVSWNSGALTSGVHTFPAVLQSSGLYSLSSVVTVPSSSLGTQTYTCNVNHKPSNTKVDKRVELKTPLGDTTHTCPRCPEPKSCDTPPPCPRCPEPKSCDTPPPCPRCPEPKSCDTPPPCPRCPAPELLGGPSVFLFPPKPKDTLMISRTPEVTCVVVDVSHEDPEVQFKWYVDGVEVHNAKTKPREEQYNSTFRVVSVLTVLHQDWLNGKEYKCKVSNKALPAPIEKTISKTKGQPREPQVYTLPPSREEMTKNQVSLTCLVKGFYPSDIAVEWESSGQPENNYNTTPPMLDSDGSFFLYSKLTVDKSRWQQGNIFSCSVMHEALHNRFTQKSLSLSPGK
T2 sequence (P01857 1-330 isoform P01857-1): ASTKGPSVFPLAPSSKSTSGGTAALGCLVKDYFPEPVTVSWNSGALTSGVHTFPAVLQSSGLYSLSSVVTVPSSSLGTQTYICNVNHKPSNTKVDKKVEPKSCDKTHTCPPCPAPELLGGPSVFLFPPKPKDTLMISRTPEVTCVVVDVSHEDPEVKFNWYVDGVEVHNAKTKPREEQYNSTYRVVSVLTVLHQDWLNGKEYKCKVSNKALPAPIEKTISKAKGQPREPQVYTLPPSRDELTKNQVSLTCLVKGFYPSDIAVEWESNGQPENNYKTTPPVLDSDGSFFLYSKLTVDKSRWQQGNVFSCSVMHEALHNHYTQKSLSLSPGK
IgG4, sequence (P01861 1-327 isoform P01861-1): as the sequence (P01861 1-327 isoform P01861-1) above
T1 sequence (P01859 1-326 isoform P01859-1): as the sequence (P01859 1-326 isoform P01859-1) above
IgG3, sequence (P01860 1-377 isoform P01860-1): as the sequence (P01860 1-377 isoform P01860-1) above

Structure (SMILES)	% IgG Capture - Batch Binding, Human IgG4 (IgG4)	% IgG Capture - Batch Binding, Human IgG2 (human IgG2)	% IgG Capture - Batch Binding, Mouse IgG (mouse IgG)	% IgG Capture - Batch Binding, Human IgG1 (human IgG1)	% IgG Capture - Batch Binding, Goat IgG (goat IgG)	% IgG Capture - Batch Binding, Human IgG (human IgG)	% IgG Capture - Batch Binding, Bovine IgG (bovine IgG)	Kd (human plasma IgG3; [1])	Kd (human plasma IgG3; [2])	Kd (human plasma IgG3; [3])	Kd (human plasma IgG3; [4])	Kd (human plasma IgG3; [5])	Kd (human plasma IgG3; [6])	Kd (human plasma IgG4; [7])	Kd (human plasma IgG4; [8])	Kd (human plasma IgG4; [9])	Kd (human plasma IgG4; [10])	Kd (human plasma IgG4; [11])	Kd (human plasma IgG4; [12])	Kd (human plasma IgG4; [13])	other results
CC[C@H](C)[C@@H]1NC(=O)[C@H](CCCCN)NC(=O)[C@@H](NC(=O)[C@H](Cc2c[nH]c3ccccc23)NC(=O)[C@H](Cc2ccc(O)cc2)NC(=O)[C@H](CO)NC(=O)CNC(=O)[C@H](C)NC(C)=O)CSSC[C@@H](C(=O)N2CCC[C@H]2C(=O)N[C@@H](CCC(N)=O)C(=O)N[C@@H](CO)C(=O)N2CCC[C@H]2C(=O)NCC(=O)N2CCC[C@H]2C(=O)N[C@@H](CCC(=O)O)C(=O)NCC(=O)NCC(=O)NCC(=O)N[C@@H](CCCCN)C(N)=O)NC(=O)[C@H](C(C)C)NC(=O)[C@H](CC(=O)O)NC(=O)[C@H](Cc2c[nH]c3ccccc23)NC1=O [DX392] (Ac-AGSYWCKIWDVCPQSPGPEGGGK-NH2; disulfide 6-12 (inferred))	9%	15%	0%	13%	0%	4%	0%	> 10 µM	> 10 µM	0.3 to 0.6 µM	0.3 to 0.6 µM	> 10 µM	> 10 µM	> 10 µM	> 10 µM	> 10 µM	> 10 µM	> 10 µM	> 10 µM	> 10 µM	Kd (human plasma IgG3; 10 nM Tris-HCl, 500 mM Sodium Chloride, pH 7.5, read-out: KD (μM) IgG3 pH 7.5 + salt): > 10 µM; Kd (human plasma IgG2; [14]): > 10 µM; Kd (human plasma IgG2; [15]): > 10 µM; Kd (human plasma IgG2; [16]): > 10 µM; Kd (human plasma IgG2; [17]): > 10 µM; Kd (human plasma IgG2; [18]): > 10 µM; Kd (human plasma IgG2; [19]): > 10 µM; Kd (human plasma IgG2; [20]): > 10 µM; % IgG Capture - Batch Binding, Human IgG3 (IgG3): 76%
CC(=O)N[C@@H](C)C(=O)NCC(=O)N[C@@H](CCCCN)C(=O)N[C@@H](Cc1ccc(O)cc1)C(=O)N[C@@H](Cc1c[nH]c2ccccc12)C(=O)N[C@H]1CSSC[C@@H](C(=O)N2CCC[C@H]2C(=O)N[C@@H](C)C(=O)N[C@@H](CC(N)=O)C(=O)N2CCC[C@H]2C(=O)NCC(=O)N2CCC[C@H]2C(=O)N[C@@H](CCC(=O)O)C(=O)NCC(=O)NCC(=O)NCC(=O)N[C@@H](CCCCN)C(N)=O)NC(=O)[C@H](C(C)C)NC(=O)CNC(=O)[C@H](Cc2c[nH]c3ccccc23)NC(=O)[C@H](CC(C)C)NC(=O)[C@H](CC(N)=O)NC1=O [DX395]	4%	2%	0%	21%	0%	19%	0%	> 10 µM	> 10 µM	1 to 2 µM	1 ± 0.26 µM	> 10 µM	> 10 µM	> 10 µM	> 10 µM	> 10 µM	> 10 µM	> 10 µM	> 10 µM	> 10 µM	Kd (human plasma IgG2; [14]): > 10 µM; Kd (human plasma IgG2; [15]): > 10 µM; Kd (human plasma IgG2; [16]): > 10 µM; Kd (human plasma IgG2; [17]): > 10 µM; Kd (human plasma IgG2; [18]): > 10 µM; Kd (human plasma IgG2; [19]): > 10 µM; Kd (human plasma IgG2; [20]): > 10 µM; % IgG Capture - Batch Binding, Human IgG3 (IgG3): 85%

Source: patent US20030199671A1, “Binding molecules for Fc-region polypeptides” (priority 2001, published 2003)
